Measured values as given in patent publication US20080248134A1, “Oral compositions, use and combinations of N-[2-(dimethylamino)ethyl]-2,6 dimethyl-1-oxo-1,2-dihydrobenzo[b]-1,6-naphthyridine-4-carboxamide and closely related analogues thereof” (Auckland Uniservices Limited, priority 2005, published 2008).

Legend:
[1] = data taken from the literature; cited from earlier work
CHrC5 = assay: In vitro susceptibility to multidrug resistance, continuous exposure IC50; type: cell-based, Chinese Hamster; details: for IC50: Cricetulus griseus, CHrC5 (multidrug resistant), continuous exposure; for Resistance factor: ratio of IC50 values in CHrC5 and AuxB1
Description: (§1) Multidrug resistance mediated by p-glycoprotein and related transport proteins is an important means by which cancer cells evade cytotoxic drugs. […] IC50 values of several drugs were measured in continuous exposure assays in these two cell lines. The resistance factor was calculated as the ratio of these values. High values indicate high susceptibility to resistance.

AuxB1 = assay: as above; type: cell-based, Chinese Hamster; details: Cricetulus griseus, AuxB1 (no multidrug resistance)
Description: as §1

JLA = assay: In vitro cell proliferation assay, continuous drug exposure; type: cell-based; details: Homo sapiens; JLA (reduced topoisomerase II), continuous drug exposure 3-5 days
Excerpt: (§2) The results with the JLA and JLD lines, which have reduced topoisomerase II content as compared to the parental Jurkat line, indicate that the IC50 value of the compound is increased with decreased topoisomerase content. This is also the case for etoposide, amsacrine, DACA and doxorubicin.

Jurkat = assay: as above; type: cell-based; details: Homo sapiens, continuous drug exposure 3-5 days
Excerpt: as §2

HCT116p53− = assay: as above; type: cell-based; details: Homo sapiens, continuous drug exposure 3-5 days
Excerpt: as §2

HCT116p53+ = assay: as above; type: cell-based; details: Homo sapiens, continuous drug exposure 3-5 days
Excerpt: as §2

JLD = assay: as above; type: cell-based; details: Homo sapiens; JLD (reduced topoisomerase II), continuous drug exposure 3-5 days
Excerpt: as §2

[2] = system: survivin in HCT116 (TP53 wild type); assay: Inhibition of survivin production, western blotting; type: cell-based, human; details: various concentrations, 24 hours
Description: Survivin is a protein that is expressed selectively in many types of cancer cells and which is known to be associated with resistance to apoptosis (Zaffaroni N and Daidone M G. Survivin expression and resistance to anticancer treatments: perspectives for new therapeutic interventions. Drug Resistance Updates: Reviews and Commentaries in Antimicrobial and Anticancer Chemotherapy. 2002 5(2):65-72). […] Extracts were prepared, proteins were separated by electrophoresis and survivin expression was determined by western blotting.

NZEN1 = assay: Human tumour xenograft; type: in vivo; details: NZEN1, Endometrium; comparison drug
Description: (§3) The compound of Formula II was evaluated in a number of xenografts using cell lines derived from cervical, endometrial, lung and colon carcinomas, leukaemia and melanoma (Table 3). These studies indicate that the compound according to the present invention has significant activity in xenografts.

Jurkat LA = assay: Human tumour xenograft; type: in vivo; details: Leukaemia, comparison drug
Description: as §3

[3] = system: p53, p21 and Fas in HCT116 (TP53 wild type); assay: Induction of the p53 pathway, western blotting; type: cell-based, human
Excerpt: The p53 protein is thought to play a major role in the induction of apoptosis in tumour cells (Levine A J. p53, the cellular gatekeeper for growth and division. Cell. 1997. 88(3):323-331). The p53 protein is a transcriptional activator, which acts in response to DNA damage and other stress pathways, and increases expression of proteins such as Fas and p21^WAF1. […] Products were detected by western blotting.

NZC1 = assay: Human tumour xenograft; type: in vivo; details: NZC1, Cervix; comparison drug
Description: as §3

NZM4 = assay: Human tumour xenograft; type: in vivo; details: NZM4, Melanoma; comparison drug
Description: as §3

NZM3 = assay: Human tumour xenograft; type: in vivo; details: NZM3, Melanoma; comparison drug
Description: as §3

NZMp2 = assay: Human tumour xenograft; type: in vivo; details: NZMp2, Melanoma; comparison drug
Description: as §3

NZM10 = assay: Human tumour xenograft; type: in vivo; details: NZM10, Melanoma; comparison drug
Description: as §3

Compound | accumulation in tumour tissue versus liver tissue and plasma [1] | IC50 (CHrC5) | Resistance factor (CHrC5) | IC50 (AuxB1) | IC50 (JLA) | IC50 (Jurkat) | IC50 (HCT116p53−) | IC50 (HCT116p53+) | IC50 (JLD) | survivin expression [2] | Comparison (NZEN1) | Comparison (Jurkat LA) | induction of p53, p21 and Fas ([3]; 24 hours at higher cell density (approaching confluence)) | induction of p53, p21 and Fas ([3]; 24 hours exposure) | induction of p53, p21 and Fas ([3]; earlier times (4-10 hours)) | Comparison (NZC1) | Comparison (NZM4) | Comparison (NZM3) | Comparison (NZMp2) | Comparison (NZM10)
COc1cc(NS(C)(=O)=O)ccc1Nc1c2ccccc2nc2ccccc12 [Amsacrine] | accumulate more in the liver tissue than tumour tissue | 0.11 µM | 5.6 | 0.019 µM | 3.1 µM | 0.037 µM | 0.052 µM | 0.025 µM | 2.7 µM | – | – | – | – | – | – | – | – | – | – | –
CN(C)CCNC(=O)c1cccc2cc3ccccc3nc12.Cl.Cl [DACA, N-[2-(dimethylamino)ethyl]acridine-4-carboxamide dihydrochloride] | relatively evenly spread throughout each tissue and plasma | 0.216 µM | 1.6 | 0.125 µM | 1.1 µM | 0.58 µM | 0.51 µM | 0.36 µM | 2.5 µM | – | – | – | – | – | – | – | – | – | – | –
COc1cccc2c1C(=O)c1c(O)c3c(c(O)c1C2=O)C[C@@](O)(C(=O)CO)C[C@@H]3O[C@H]1C[C@H](N)[C@H](O)[C@H](C)O1 [Doxorubicin] | – | 6.1 µM | 114 | 0.053 µM | 0.042 µM | 0.0096 µM | 0.021 µM | 0.0105 µM | 0.27 µM | only small effects | inactive | inactive | did not | induced p53, p21 and Fas in dose-dependent fashions | did not | – | – | – | – | –
COc1cc([C@@H]2c3cc4c(cc3[C@@H](O[C@@H]3O[C@@H]5CO[C@@H](C)O[C@H]5[C@H](O)[C@H]3O)[C@H]3COC(=O)[C@H]23)OCO4)cc(OC)c1O [Etoposide] | – | 8.6 µM | 7.2 | 1.19 µM | 2.08 µM | 0.16 µM | 0.39 µM | 0.21 µM | 14.4 µM | only small effects | – | – | – | – | – | active | active | active | active | active
CNC(=O)c1cccc2c(Nc3ccc(NS(C)(=O)=O)cc3OC)c3cccc(C)c3nc12 [asulacrine, 9-((2-methoxy-4-[(methylsulfonyl)-amino]phenyl)amino)-N,5-dimethyl-4-acridinecarboxamide] | accumulate more in the liver tissue than tumour tissue | – | – | – | – | – | – | – | – | – | – | – | – | – | – | – | – | – | – | –
